Data as given in ChEMBL document CHEMBL3045479, “Synthesis and anti-cancer activity of some novel C-17 analogs of ursolic and oleanolic acids” (2013).
Where a name gives a salt, the structure may show the parent alone.

Columns and labels:
Assay type in all cases: functional
SW-620 = test: Growth inhibition of Homo sapiens (human) SW620 cells at 10 uM after 48 hr by SRB assay; conditions: SW-620, 48 h, read-out: GI
COLO 205 = test: Growth inhibition of Homo sapiens (human) COLO205 cells at 10 uM after 48 hr by SRB assay; conditions: COLO 205, 48 h, read-out: GI
HeLa = test: Growth inhibition of Homo sapiens (human) HeLa cells at 10 uM after 48 hr by SRB assay; conditions: read-out: GI
A549 = test: Growth inhibition of Homo sapiens (human) A549 cells at 10 uM after 48 hr by SRB assay; conditions: A549, 48 h, read-out: GI
IMR-32 = test: Growth inhibition of Homo sapiens (human) IMR32 cells at 10 uM after 48 hr by SRB assay; conditions: IMR-32, 48 h, read-out: GI
SiHa = test: Growth inhibition of Homo sapiens (human) SiHa cells at 10 uM after 48 hr by SRB assay; conditions: read-out: GI

| SMILES | inhibition of growth at 10 µM (SW-620) | inhibition of growth at 10 µM (COLO 205) | inhibition of growth at 10 µM (HeLa) | inhibition of growth at 10 µM (A549) | inhibition of growth at 10 µM (IMR-32) | inhibition of growth at 10 µM (SiHa) |
| --- | --- | --- | --- | --- | --- | --- |
| COc1cccc2c1C(=O)c1c(O)c3c(c(O)c1C2=O)C[C@@](O)(C(=O)CO)C[C@@H]3O[C@H]1C[C@H](N)[C@H](O)[C@H](C)O1 [DOXORUBICIN HYDROCHLORIDE] | 38% | 89% | 58% | 50% | 82% | – |
| COC(=O)COC(=O)[C@]12CC[C@@H](C)[C@H](C)[C@H]1C1=CC[C@@H]3[C@@]4(C)CC[C@H](O)C(C)(C)[C@@H]4CC[C@@]3(C)[C@]1(C)CC2 [3BETA-HYDROXY-URS-12-EN-28-METHYL ACETOACETATE] | 0% | 0% | 11% | 23% | 18% | 24% |
| CC(=O)O[C@H]1C(=O)[C@@]2(C)[C@H]([C@H](OC(=O)c3ccccc3)[C@]3(O)C[C@H](OC(=O)[C@H](O)[C@@H](NC(=O)c4ccccc4)c4ccccc4)C(C)=C1C3(C)C)[C@]1(OC(C)=O)CO[C@@H]1C[C@@H]2O [PACLITAXEL] | 36% | 67% | 45% | 44% | 30% | – |
| COC(=O)[C@]12CCC(C)(C)C[C@H]1C1=CC[C@@H]3[C@@]4(C)CC[C@H](O)C(C)(C)[C@@H]4CC[C@@]3(C)[C@]1(C)CC2 [METHYL OLEANOLATE] | 8% | 0% | 18% | 48% | 55% | 21% |
| C=CCOC(=O)[C@]12CCC(C)(C)C[C@H]1C1=CC[C@@H]3[C@@]4(C)CC[C@H](O)C(C)(C)[C@@H]4CC[C@@]3(C)[C@]1(C)CC2 [3BETA-HYDROXY-OLEAN-12-EN-28-ALLYLATE] | 1% | 0% | 0% | 31% | 16% | 15% |
| C#CCOC(=O)[C@]12CC[C@@H](C)[C@H](C)[C@H]1C1=CC[C@@H]3[C@@]4(C)CC[C@H](O)C(C)(C)[C@@H]4CC[C@@]3(C)[C@]1(C)CC2 [3BETA-HYDROXY-URS-12-EN-28-PROPARGYLATE] | 0% | 0% | 0% | 24% | 11% | 4% |
| C#CCOC(=O)[C@]12CCC(C)(C)C[C@H]1C1=CC[C@@H]3[C@@]4(C)CC[C@H](O)C(C)(C)[C@@H]4CC[C@@]3(C)[C@]1(C)CC2 [3BETA-HYDROXY-OLEN-12-EN-28-PROPARGYLATE] | 2% | 15% | 27% | 20% | 16% | 30% |
| C=CCOC(=O)[C@]12CC[C@@H](C)[C@H](C)[C@H]1C1=CC[C@@H]3[C@@]4(C)CC[C@H](O)C(C)(C)[C@@H]4CC[C@@]3(C)[C@]1(C)CC2 [3BETA-HYDROXY-URS-12-EN-28-ALLYLATE] | 0% | 0% | 0% | 19% | 20% | 25% |
| CC(C)=CCOC(=O)[C@]12CCC(C)(C)C[C@H]1C1=CC[C@@H]3[C@@]4(C)CC[C@H](O)C(C)(C)[C@@H]4CC[C@@]3(C)[C@]1(C)CC2 [3BETA-HYDROXY-OLEAN-12-EN-28-PRENYLATE] | 13% | 0% | 5% | 25% | 16% | 36% |
